Data from patent US6569902B2, “Nitrone inhibition of cancer development” (Oklahoma Medical Research Foundation, priority 2000, dated 2003).
Where two headings read alike, the source gives them in different places.

Key:
rats fed the CDAA diet = conditions: cited from earlier work; for size of neoplastic nodules: 12 weeks, CDAA only 1.92; for nodule number: CDAA only 190
[1] = system: male Wistar rats fed the CDAA diet; assay: Example 1 main study: hepatocarcinogenesis (HCA, HCC, fibrosis) in rats fed the CDAA diet for 70 weeks; format: in vivo, rat
From the text: Animals, diets and chemical. The protocols were approved prior to the experiments by the Animal Experimentation committee at Nara Medical University according to the Guidelines on Animal Experiments in accordance with Japanese Government Animal Protection and Management Law Number 105 and Japanese Government Notification on Feeding and Safekeeping of Animals Number 6. Male Wistar rats, 6 weeks old, were purchased from JapanSLC, Inc., Hamamatsu, Shizuoka, Japan. Rats were housed 5 each to a plastic cage with white flake bedding (Kansai Animal Corp., City of Kyoto, Kyoto, Japan) in an air-conditioned room (25±3° C. temperature, 55 ±8% relative humidity, 10-12/h ventilation and 12-h dark/light cycle). Rats were used for the experimentation after a 1-week acclimation on a basal diet (CE-1, Clea Japan, Meguro, Tokyo, Japan) and allowed free access to food and tap water throughout the acclimation and experimental periods. Body weight, food consumption and water intake were monitored weekly. The CDAA diet and a control CSAA diet were obtained from Dyets Inc., Bethlehem, PA.
Main study. A total of 60 rats were equally divided into 6 groups. Group 1 received the CDAA diet for 70 weeks. […] The time-point of 26 weeks after the commencement, when treatments were changed in groups 3 and 4, was decided according to the results of the pilot study (see the Results and Discussion section below). All surviving rats were sacrificed 70 weeks after the commencement, and the livers were taken. Two serial 4-μm-thick, 10%-neutrally-buffered-folmalin-fixed 9 for 24 h), paraffin-embedded liver specimens were prepared and stained routine H&E and Masson's trichrome procedures. The H&E-stained liver specimens were histologically examined according to the aforementioned criteria (Maronpot et al. 1986), and the incidences of HCA and HCC were determined. Grade of fibrosis were evaluated by analyzing percent area occupied by collagen fiber in the Masson's trichrome-stained liver specimens using an IPAP image analyzing system (Sumika Technoservice, Corp., City of Osaka, Osaka, Japan).
Statistical analyses. Statistical analyses were carried out using an InStat software (GraphPad Software, Inc., San Diego, Cali.). Fisher's exact test was used to assess statistical significance of inter-group differences of the lesion incidences. Student-Newrnan-Keuls multiple comparison test was used to assess statistical significance of inter-group differences of means after one-way ANOVA to determine variations among group means, followed by Bartlett's test to determine homogeneity of variance.

[2] = cited from earlier work
[3] = system: rat liver microsome peroxidation; conditions: read-out: IC50, inhibition of rat liver microsome peroxidation; cited from earlier work
[4] = system: livers of male Wistar rats fed the CDAA diet; assay: Example 2: histological liver injury (fibrosis, fatty liver); format: in vivo, rat; conditions: high dose 0.090%, CDAA diet 16 weeks
From the text: Animal experiment. After acclimation, rats were divided equally into 22 groups consisting of 5 animals each. Animals in group 1 received the CDAA diet alone. […] Groups 5-7, 8-10, 11-13 and 14-16 received the CDAA diet containing the low, middle, and high doses of 4-OHPBN, 3-OHPBN, 2-OHPBN and 2-SPBN, respectively. Group 17 received the CSAA diet alone. […] All animals were sacrificed by exsanguination under light ether anesthesia 16 weeks after commencement, and the livers excised. Slices 5-mm-thick were taken from the left lateral, median and right lateral lobes of the livers, fixed in 10% neutrally-buffered formalin for 24 hours and then embedded in paraffin. Five serial 4-μm-thick sections were prepared from each fixed liver slice and used for histological and immunohistochemical assessment as described below. The remaining portions of the livers were immediately frozen under liquid nitrogen and stored at −80° C. until use.
Histological and immunohistochemical assessments. Histological assessment was performed using sections routinely stained with hematoxylin/eosin and Masson's trichrome procedures. Gradation of fibrosis was quantitatively evaluated in groups 1, 4, 7, 10, 13, 16 and 17 by calculating the percent area occupied by collagen fiber stained blue by Masson's trichrome method using an IPAP image analyzing system (Sumika Technoservice Corp., City of Osaka, Osaka, Japan). GST-P-positive lesions were visualized immunohistochemically. Lesions consisting of more than 6 cells were quantified using the IPAP system as described elsewhere (Kishida et al. 2000). The amount of apoptosis and the cellular proliferative activity were determined in groups 1, 4, 7, 10, 13, 16 and 17, using the double staining techniques by combination of the GST-P immunohistochemistry as above with the in situ terminal deoxynucleotidyl transferase-mediated dUTP-biotin nick end-labeling method (Gold et al. 1994) and the enhanced polymer one-step staining method for proliferating cell nuclear antigen (Tsutsumi et al. 1995), respectively. Numbers of apoptotic and proliferating hepatocytes among the 1000-5000 hepatocytes in GST-P-positive lesions and 5000 hepatocytes in surrounding tissue were counted under light microscopy to obtain percentages that are hereafter referred as apoptotic and proliferative indices, respectively.
Statistics. Inter-group differences in quantitative data for multiple groups were recognized to be significant, when p values smaller than 0.05 were obtained by the Dunnett multiple comparison test employed after one-way analysis of variance to determine the variation among the group means followed by the Bartlett's test to determine the homogeniety of variance.

[5] = group 2: CDAA diet with PBN 0.065% in drinking water for 70 weeks, CDAA alone 57.1%
[6] = group 3: CDAA with PBN for first 26 weeks, then CDAA alone 44 weeks
[7] = group 4: CDAA alone 26 weeks, then CDAA with PBN for last 44 weeks
[8] = group 6: CSAA control diet with PBN 70 weeks (stated for groups 5 or 6)

CC(C)(C)[N+]([O-])=Cc1ccccc1 [PBN, phenyl N-tert-butyl nitrone]
size of neoplastic nodules (rats fed the CDAA diet; CDAA plus PBN 6 mg/kg-day): 0.33 mm^3
size of neoplastic nodules (rats fed the CDAA diet; CDAA plus PBN 30 mg/kg-day): 0.17 mm^3
size of neoplastic nodules (rats fed the CDAA diet; CDAA plus PBN 60 mg/kg-day): 0.10 mm^3
nodule number (rats fed the CDAA diet; PBN 6 mg/kg-day): 170 per mm^3
nodule number (rats fed the CDAA diet; PBN 30 mg/kg-day): 149 per mm^3
nodule number (rats fed the CDAA diet; PBN 60 mg/kg-day): 142 per mm^3
reduction of the amount of PGE2 in the CD-livers (rats fed the CDAA diet; highest dose): about 50%
decrease of nodule size (rats fed the CDAA diet; highest level of PBN): 95%
8-OHdG content (marker of DNA oxidation) in the CD-livers (rats fed the CDAA diet; increasing concentrations of PBN): reduced
decrease of nodule size (rats fed the CDAA diet; lowest level of PBN (6 mg/kg)): 83%
decrease of nodule number (rats fed the CDAA diet; lowest level of PBN): 11%
effect on COX-II expression (rats fed the CDAA diet; mRNA or protein level): no effect
connective tissue proliferation (rats fed the CDAA diet; rat, in vivo): significantly reduced
carcinogenicity of PBN itself ([1]; 70-week study, PBN in drinking water): not carcinogenic itself
HCA incidence [1, 5]: 25.0%
HCC incidence [1, 5]: 25.0%
grade of fibrosis, percent of liver specimen occupied by fiber ([1]; group 2: PBN 70 weeks, group 1 (CDAA alone) 13.32%): 9.95%
HCA incidence [1, 6]: 28.6%
HCC incidence [1, 6]: 0%
grade of fibrosis, percent of liver specimen occupied by fiber ([1]; group 3: PBN first 26 weeks, group 1 13.32%): 8.71%
HCA incidence [1, 7]: 62.5%
HCC incidence [1, 7]: 0%
grade of fibrosis, percent of liver specimen occupied by fiber ([1]; group 4: PBN last 44 weeks, group 1 13.32%): 12.86%
grade of fibrosis ([1]; group 6: CSAA control diet with PBN 70 weeks (one value stated for groups 5 or 6)): 1.61%
HCA incidence [1, 8]: 0%
HCC incidence [1, 8]: 0%
half-life ([2]; in rats): about 132 minutes
tissue distribution ([2]; rat, in vivo): readily and rapidly distributed almost equally to all tissues
IC50 [3]: 5 mM
grade of fibrosis versus group 1 [4]: significantly lower
